In ChEMBL document CHEMBL5729561, “Compounds and uses thereof” (2023):

Test: On day 0 cells were seeded in 30 μL media into each well of 384-well cell culture plates. The seeding density was 8000 cells/well. On day 1, cells were treated with 30 nL DMSO or 30 nL of 3-fold serially DMSO-diluted compounds (10 points in duplicates with 1 μM as final top dose). Subsequently plates were incubated for 6 hours in a standard tissue culture incubator and equilibrated at room temperature for 15 minutes. Nanoluciferase activity was measured by adding 15 μL of freshly prepared Nano-Glo Luciferase Assay Reagent (Promega N1130), shaking the plates for 10 minutes and reading the bioluminescence using an EnVision reader.
Type: cell-based

| Compound | IC50 |
| --- | --- |
| COc1cc(-c2cn(C)c(=O)c3cnccc23)cc(OC)c1CN1CC2(C1)CN(C(=O)CCCOc1cccc3c1C(=O)N(C1CCC(=O)NC1=O)C3=O)C2 (stereo not drawn) | in the range around 55 nM |
| COc1cc(-c2cn(C)c(=O)c3cnccc23)cc(OC)c1CN1CC(NC(=O)CCCCCOc2cccc3c2C(=O)N(C2CCC(=O)NC2=O)C3=O)C1 (stereo not drawn) | in the range around 55 nM |
| COc1cc(-c2cn(C)c(=O)c3cnccc23)cc(OC)c1CN(C)CC1CC2(CCN(C(=O)CCOCCOc3ccc4c(c3)C(=O)N(C3CCC(=O)NC3=O)C4=O)CC2)CO1 (stereo not drawn) | < 10 nM |
| COc1cc(-c2cn(C)c(=O)c3cnccc23)cc(OC)c1CN1CCCC(OCc2cn(CCCCCOc3ccc4c(c3)C(=O)N(C3CCC(=O)NC3=O)C4=O)nn2)C1 (stereo not drawn) | < 10 nM |
| COc1cc(-c2cn(C)c(=O)c3cnccc23)cc(OC)c1CN1CC2(CCN(C(=O)CCOCCOc3cccc4c3C(=O)N(C3CCC(=O)NC3=O)C4=O)CC2)C1 (stereo not drawn) | in the range around 550 nM |
| COc1cc(-c2cn(C)c(=O)c3cnccc23)cc(OC)c1CN(C)C1CCC12CCN(C(=O)CCOCCOc1ccc3c(c1)C(=O)N(C1CCC(=O)NC1=O)C3=O)CC2 (stereo not drawn) | < 10 nM |
| COc1cc(-c2cn(C)c(=O)c3cnccc23)cc(OC)c1CNCCCN1CC(Oc2ccc3c(c2)C(=O)N(C2CCC(=O)NC2=O)C3=O)C1 (stereo not drawn) | in the range around 55 nM |
| COc1cc(-c2cn(C)c(=O)c3cnccc23)cc(OC)c1CN1CCC2(C[C@H]2NC(=O)CCOCCOc2cccc3c2C(=O)N(C2CCC(=O)NC2=O)C3=O)C1 (stereo partly drawn) | in the range around 55 nM |
| COc1cc(-c2cn(C)c(=O)c3cnccc23)cc(OC)c1CN(C)CCc1cn(CCCCCOc2ccc3c(c2)C(=O)N(C2CCC(=O)NC2=O)C3=O)nn1 (stereo not drawn) | < 10 nM |
| COc1cc(-c2cn(C)c(=O)c3cnccc23)cc(OC)c1CN1CCC(COC2CCN(C(=O)CCOCCOc3ccc4c(c3)C(=O)N(C3CCC(=O)NC3=O)C4=O)C2)CC1 (stereo not drawn) | < 10 nM |
| COc1cc(-c2cn(C)c(=O)c3cnccc23)cc(OC)c1CN(C)CCc1cn(CCCCOc2ccc3c(c2)C(=O)N(C2CCC(=O)NC2=O)C3=O)nn1 (stereo not drawn) | in the range around 55 nM |
| COc1cc(-c2cn(C)c(=O)c3cnccc23)cc(OC)c1CN1CC2(C1)CN(C(=O)COc1cccc3c1C(=O)N(C1CCC(=O)NC1=O)C3=O)C2 (stereo not drawn) | in the range around 550 nM |
| COc1cc(-c2cn(C)c(=O)c3cnccc23)cc(OC)c1CNCCOCC(=O)N1CC(COc2ccc3c(c2)C(=O)N(C2CCC(=O)NC2=O)C3=O)C1 (stereo not drawn) | in the range around 550 nM |
| COc1cc(-c2cn(C)c(=O)c3cnccc23)cc(OC)c1ON1CC2(CC(NC(=O)CCOCCOc3ccc4c(c3)C(=O)N(C3CCC(=O)NC3=O)C4=O)C2)C1 (stereo not drawn) | in the range around 550 nM |
| COc1cc(-c2cn(C)c(=O)c3cnccc23)cc(OC)c1CN1CCN(CCCOc2ccc3c(c2)C(=O)N(C2CCC(=O)NC2=O)C3=O)CC1 (stereo not drawn) | < 10 nM |
| COc1cc(-c2cn(C)c(=O)c3cnccc23)cc(OC)c1CN(C)C12CC(NC(=O)CCOCCOCCNc3cccc4c3C(=O)N(C3CCC(=O)NC3=O)C4=O)(C1)C2 (stereo not drawn) | < 10 nM |
| COc1cc(-c2cn(C)c(=O)c3cnccc23)cc(OC)c1CN1CCC(OCc2cn(CCCCCOc3ccc4c(c3)C(=O)N(C3CCC(=O)NC3=O)C4=O)nn2)C1 (stereo not drawn) | < 10 nM |
| COc1cc(-c2cn(C)c(=O)c3cnccc23)cc(OC)c1CN1CC(OCc2cn(CCCCCOc3ccc4c(c3)C(=O)N(C3CCC(=O)NC3=O)C4=O)nn2)C1 (stereo not drawn) | in the range around 55 nM |
| COc1cc(-c2cn(C)c(=O)c3cnccc23)cc(OC)c1CN1CC(OCc2cn(CCOc3ccc4c(c3)C(=O)N(C3CCC(=O)NC3=O)C4=O)nn2)C1 (stereo not drawn) | in the range around 55 nM |
| COc1cc(-c2cn(C)c(=O)c3cnccc23)cc(OC)c1CN1CCC2(CC1)CN(C(=O)CCCCOc1cccc3c1C(=O)N(C1CCC(=O)NC1=O)C3=O)CCO2 (stereo not drawn) | < 10 nM |
| COc1cc(-c2cn(C)c(=O)c3cnccc23)cc(OC)c1CN(C)C12CC(C(=O)NCCCCCNc3cccc4c3C(=O)N(C3CCC(=O)NC3=O)C4=O)(C1)C2 (stereo not drawn) | < 10 nM |
| COc1cc(-c2cn(C)c(=O)c3cnccc23)cc(OC)c1CN1CCCC(OCc2cn(CCCOc3ccc4c(c3)C(=O)N(C3CCC(=O)NC3=O)C4=O)nn2)C1 (stereo not drawn) | in the range around 55 nM |
| COc1cc(-c2cn(C)c(=O)c3cnccc23)cc(OC)c1CN1CCN(C(=O)C2CC2CNC(=O)COc2cccc3c2C(=O)N(C2CCC(=O)NC2=O)C3=O)CC1 (stereo not drawn) | in the range around 550 nM |
| COc1cc(-c2cn(C)c(=O)c3cnccc23)cc(OC)c1CN(C)Cc1cn(CCCCOc2ccc3c(c2)C(=O)N(C2CCC(=O)NC2=O)C3=O)nn1 (stereo not drawn) | in the range around 55 nM |
| COc1cc(-c2cn(C)c(=O)c3cnccc23)cc(OC)c1CN1CC(C(=O)NCCOCCOCCNc2cccc3c2C(=O)N(C2CCC(=O)NC2=O)C3=O)C1 (stereo not drawn) | in the range around 55 nM |
| COc1cc(-c2cn(C)c(=O)c3cnccc23)cc(OC)c1CN1CCC(OCc2cn(CCOCc3ccc4c(c3)C(=O)N(C3CCC(=O)NC3=O)C4=O)nn2)CC1 (stereo not drawn) | in the range around 55 nM |
| COc1cc(-c2cn(C)c(=O)c3cnccc23)cc(OC)c1CN(C)CC12CC(NC(=O)CCCCOc3cccc4c3C(=O)N(C3CCC(=O)NC3=O)C4=O)(C1)C2 (stereo not drawn) | < 10 nM |

| Compound | IC50 |
| --- | --- |
| COc1cc(-c2cn(C)c(=O)c3cnccc23)cc(OC)c1CN1CC(S(=O)(=O)NCCCCCCNc2ccc3c(c2)C(=O)N(C2CCC(=O)NC2=O)C3=O)C1 (stereo not drawn) | < 10 nM |
| COc1cc(-c2cn(C)c(=O)c3cnccc23)cc(OC)c1CN(C)C1CC2CC1CN2C(=O)CCOCCOc1cccc2c1C(=O)N(C1CCC(=O)NC1=O)C2=O (stereo not drawn) | in the range around 55 nM |
| COc1cc(-c2cn(C)c(=O)c3cnccc23)cc(OC)c1CN1CCC(OCc2cn(CCOc3ccc4c(c3)C(=O)N(C3CCC(=O)NC3=O)C4=O)nn2)C1 (stereo not drawn) | in the range around 55 nM |
| COc1cc(-c2cn(C)c(=O)c3cnccc23)cc(OC)c1CN(C)C12CC(NC(=O)CCCCCOc3cccc4c3C(=O)N(C3CCC(=O)NC3=O)C4=O)(C1)C2 (stereo not drawn) | < 10 nM |
| COc1cc(-c2cn(C)c(=O)c3cnccc23)cc(OC)c1CN1CCC2(CCN(C(=O)CCOCCOc3ccc4c(c3)C(=O)N(C3CCC(=O)NC3=O)C4=O)C2)C1 (stereo not drawn) | in the range around 55 nM |
| COc1cc(-c2cn(C)c(=O)c3cnccc23)cc(OC)c1CN(C)NC(=O)CCCCC(=O)NC12CC(Nc3cccc4c3C(=O)N(C3CCC(=O)NC3=O)C4=O)(C1)C2 (stereo not drawn) | < 10 nM |
| COc1cc(-c2cn(C)c(=O)c3cnccc23)cc(OC)c1CN(C)CCCN1CCC(Oc2ccc3c(c2)C(=O)N(C2CCC(=O)NC2=O)C3=O)CC1 (stereo not drawn) | < 10 nM |
| COc1cc(-c2cn(C)c(=O)c3cnccc23)cc(OC)c1CN1CCC2(C[C@@H]2NC(=O)CCOCCOc2cccc3c2C(=O)N(C2CCC(=O)NC2=O)C3=O)C1 (stereo partly drawn) | in the range around 550 nM |
| COc1cc(-c2cn(C)c(=O)c3cnccc23)cc(OC)c1CN1CC2(CC(NC(=O)CCOCCOc3cccc4c3C(=O)N(C3CCC(=O)NC3=O)C4=O)C2)C1 (stereo not drawn) | in the range around 55 nM |
| COc1cc(-c2cn(C)c(=O)c3cnccc23)cc(OC)c1CN1CC(S(=O)(=O)NCCCCCNc2ccc3c(c2)C(=O)N(C2CCC(=O)NC2=O)C3=O)C1 (stereo not drawn) | < 10 nM |
| COc1cc(-c2cn(C)c(=O)c3cnccc23)cc(OC)c1CN(C)Cc1cn(-c2ccc3c(c2)C(=O)N(C2CCC(=O)NC2=O)C3=O)nn1 (stereo not drawn) | in the range around 550 nM |
| COc1cc(-c2cn(C)c(=O)c3cnccc23)cc(OC)c1CN(C)C1CC2CN(C(=O)CCOCCOc3ccc4c(c3)C(=O)N(C3CCC(=O)NC3=O)C4=O)CC2C1 (stereo not drawn) | in the range around 55 nM |
| COc1cc(-c2cn(C)c(=O)c3cnccc23)cc(OC)c1CN1CCC(C2CCN(C(=O)CCOCCOc3cccc4c3C(=O)N(C3CCC(=O)NC3=O)C4=O)C2)CC1 (stereo not drawn) | in the range around 55 nM |
| COc1cc(-c2cn(C)c(=O)c3cnccc23)cc(OC)c1CN1CCC2(C1)CN(C(=O)CCOCCOc1cccc3c1C(=O)N(C1CCC(=O)NC1=O)C3=O)C2 (stereo not drawn) | in the range around 55 nM |
| COc1cc(-c2cn(C)c(=O)c3cnccc23)cc(OC)c1CN1CCC(OCc2cn(CCCOc3ccc4c(c3)C(=O)N(C3CCC(=O)NC3=O)C4=O)nn2)C1 (stereo not drawn) | in the range around 550 nM |
| COc1cc(-c2cn(C)c(=O)c3cnccc23)cc(OC)c1CN(C)CC(=O)NCCCCN1CCOC2(CCN(c3ccc4c(c3)C(=O)N(C3CCC(=O)NC3=O)C4=O)CC2)C1 (stereo not drawn) | < 10 nM |
| COc1cc(-c2cn(C)c(=O)c3cnccc23)cc(OC)c1CN1CCC12CCN(C(=O)CCOCCOc1ccc3c(c1)C(=O)N(C1CCC(=O)NC1=O)C3=O)C2 (stereo not drawn) | in the range around 550 nM |
| COc1cc(-c2cn(C)c(=O)c3cnccc23)cc(OC)c1CN1CCC(OCc2cn(-c3ccc4c(c3)C(=O)N(C3CCC(=O)NC3=O)C4=O)nn2)C1 (stereo not drawn) | in the range around 55 nM |
| COc1cc(-c2cn(C)c(=O)c3cnccc23)cc(OC)c1CN1CCC2(CCN(C(=O)CCOCCOc3cccc4c3C(=O)N(C3CCC(=O)NC3=O)C4=O)C2)C1 (stereo not drawn) | < 10 nM |
| COc1cc(-c2cn(C)c(=O)c3cnccc23)cc(OC)c1CN1CC2(CCC2NC(=O)CCOCCOc2cccc3c2C(=O)N(C2CCC(=O)NC2=O)C3=O)C1 (stereo not drawn) | > 1000 nM |
| COc1cc(-c2cn(C)c(=O)c3cnccc23)cc(OC)c1CN1CCCC(OCc2cn(CCCCOc3ccc4c(c3)C(=O)N(C3CCC(=O)NC3=O)C4=O)nn2)C1 (stereo not drawn) | in the range around 55 nM |
| COc1cc(-c2cn(C)c(=O)c3cnccc23)cc(OC)c1CN1CCC2(CC1)CN(C(=O)COc1cccc3c1C(=O)N(C1CCC(=O)NC1=O)C3=O)CCO2 (stereo not drawn) | in the range around 55 nM |
| COc1cc(-c2cn(C)c(=O)c3cnccc23)cc(OC)c1CN1CCC(OC2CCN(C(=O)CCOCCOc3ccc4c(c3)C(=O)N(C3CCC(=O)NC3=O)C4=O)CC2)CC1 (stereo not drawn) | < 10 nM |
| COc1cc(-c2cn(C)c(=O)c3cnccc23)cc(OC)c1CN1CC[C@H]1CN(C)Cc1cccc2c1C(=O)N(C1CCC(=O)NC1=O)C2=O (stereo partly drawn) | in the range around 55 nM |
| COc1cc(-c2cn(C)c(=O)c3cnccc23)cc(OC)c1CN1CC(OCc2cn(CCCCOc3ccc4c(c3)C(=O)N(C3CCC(=O)NC3=O)C4=O)nn2)C1 (stereo not drawn) | in the range around 55 nM |
| COc1cc(-c2cn(C)c(=O)c3cnccc23)cc(OC)c1CN(C)CC1CC2(C1)CN(C(=O)CCOCCOc1cccc3c1C(=O)N(C1CCC(=O)NC1=O)C3=O)C2 (stereo not drawn) | in the range around 55 nM |
